Measured values: patent US20090181931A1, “ANTIVIRAL ACTIVITY OF CIDOFOVIR AGAINST ONCOLYTIC VIRUSES” (priority 2008, published 2009)
Several values for one entry are separate records, joined by “and”; a condition that tells them apart may be missing. Equal entries are not always repeated.

Key:
Telomelysin (OBP-301) [1] = assay: XTT assay, protection from cytopathic effect of Telomelysin in A549 cells; format: cell-based, adenovirus; conditions: for Protection (%) Ave. / Protection (%): Telomelysin MOI 5, A549, 7 days; for Protection (%): single wells, dihydrate
Protocol: (§1) Cells frozen in liquid nitrogen were thawed in water bath at 37° C., seeded at T25 flask, and cultured at 70-90% sub-confluent monolayer. Cells were detached with trypsin, and prepared suspension at a concentration of 1.0×10^4 cells/ml.
(§2) Cells were seeded in 96 well-plate (100 μL/well, 1000 cells/well), then cultured with 5% CO2 at 37° C.
(§3) Viruses were diluted at MOI of 1 (OBP-301, OBP-202) in H1299 and 5 in A549 (PFU/cell). Medium in each well was removed, 150 μL of diluted virus solution was added to each well of the plate. 2 hours later, medium was aspirated and replaced with fresh medium containing 2% FCS and serially diluted CDV. Cells were incubated with 5% CO2 at 37° C. for 7 days after infection.
(§4) 100 μL of PBS, 50 μL of XTT labeling reagent, and 1 μL of ion coupling reagent per well of plate were mixed.
(§5) Medium in each well of plate was removed, and 150 μL of mixture prepared above was added to each well. Plate was incubated with 5% CO2 at 37° C. for 4 hours, and then calculated absorbance at 450 nm and 690 nm. Protection was determined by the formula below:
(§6) Protection(%)={OD(AdV(+):CDV(+))−OD(AdV(+):CDV(−))}/{OD(AdV(−):CDV(+))−OD(AdV(+):CDV(−))}×100.

H1299 cells = assay: XTT cell viability assay, CDV alone, H1299 cells; format: cell-based; conditions: for Relative cell viability Ave. / Relative cell viability: H1299, no virus, 7 days; for Relative cell viability: single wells, dihydrate
Protocol: as §1, §2, §3
as §3, with “0.1 (OBP-401) or 10 (ONYX-015)” for “1 (OBP-301, OBP-202)”, “H1299.” for “H1299 and 5 in A549 (PFU/cell).”, “50” for “150”
as §4
(§7) Medium in each well of plate was removed, and 150 μL of mixture prepared above was added to each well. Plate was incubated with 5% CO2 at 37° C. for 4 hours, and then calculated absorbance at 450 nm and 690 nm. Protection was determined by the formula below: […]

[2] = XTT cell viability assay, CDV alone, H1299 cells; format: cell-based; conditions: human; H1299 cells, XTT; read-out: CC50, CDV concentration that reduce the relative cell viability to 50%
Protocol: as §1, §2, §3
as §3, with “0.1 (OBP-401) or 10 (ONYX-015)” for “1 (OBP-301, OBP-202)”, “H1299.” for “H1299 and 5 in A549 (PFU/cell).”, “50” for “150”
as §4, §7

Telomelysin (OBP-301) [3] = assay: XTT assay, protection from cytopathic effect of Telomelysin in H1299 cells; format: cell-based, adenovirus; conditions: for Protection (%) Ave. / Protection (%): Telomelysin MOI 1, H1299, 7 days; for Protection (%): single wells, dihydrate
Protocol: as §1, §2, §3, §4, §5, §6

TelomeScan (OBP-401) = assay: XTT assay, protection from cytopathic effect of TelomeScan (OBP-401) in H1299 cells; format: cell-based, adenovirus; conditions: for Protection (%) Ave. / Protection (%): OBP-401 MOI 0.1, H1299, 7 days; for Protection (%): single wells, dihydrate
Protocol: as §1, §2
as §3, with “0.1 (OBP-401) or 10 (ONYX-015)” for “1 (OBP-301, OBP-202)”, “H1299.” for “H1299 and 5 in A549 (PFU/cell).”, “50” for “150”
as §4, §5, §6

SMILES: Nc1ccn(C[C@@H](CO)OCP(=O)(O)O)c(=O)n1.O.O [CDV, 1-[(S)-3-hydroxy-2-(phosphonomethoxy)propyl]cytosine dihydrate]
- Telomelysin-mediated cytopathic effect (Telomelysin (OBP-301) [1]; A549 cells, FIG. 1A): apparently inhibited
- Protection (%) Ave. (Telomelysin (OBP-301) [1]; CDV 10 μM): 1.376%
- Protection (%) (Telomelysin (OBP-301) [1]; CDV 10 μM): 1.991% and 0.387% and 1.136%
- Protection (%) Ave. (Telomelysin (OBP-301) [1]; CDV 20 μM): 7.535%
- Protection (%) (Telomelysin (OBP-301) [1]; CDV 20 μM): 7.548% and 4.342% and 7.388% and 10.862%
- Protection (%) Ave. (Telomelysin (OBP-301) [1]; CDV 30 μM): 40.094%
- Protection (%) (Telomelysin (OBP-301) [1]; CDV 30 μM): 41.269% and 33.413% and 44.208% and 41.483%
- Protection (%) Ave. (Telomelysin (OBP-301) [1]; CDV 40 μM): 56.713%
- Protection (%) (Telomelysin (OBP-301) [1]; CDV 40 μM): 61.951% and 52.118% and 53.881% and 58.904%
- Protection (%) Ave. (Telomelysin (OBP-301) [1]; CDV 50 μM): 61.202%
- Protection (%) (Telomelysin (OBP-301) [1]; CDV 50 μM): 69.539% and 54.148% and 62.592% and 58.530%
- Protection (%) Ave. (Telomelysin (OBP-301) [1]; CDV 60 μM): 67.295%
- Protection (%) (Telomelysin (OBP-301) [1]; CDV 60 μM): 68.310% and 63.768% and 66.440% and 70.661%
- Protection (%) Ave. (Telomelysin (OBP-301) [1]; CDV 70 μM): 62.538%
- Protection (%) (Telomelysin (OBP-301) [1]; CDV 70 μM): 66.226% and 58.424% and 61.844% and 63.661%
- Protection (%) Ave. (Telomelysin (OBP-301) [1]; CDV 80 μM): 56.740%
- Protection (%) (Telomelysin (OBP-301) [1]; CDV 80 μM): 54.790% and 51.637% and 59.279% and 61.256%
- Protection (%) Ave. (Telomelysin (OBP-301) [1]; CDV 90 μM): 49.806%
- Protection (%) (Telomelysin (OBP-301) [1]; CDV 90 μM): 51.423% and 50.514% and 50.942% and 46.346%
- Protection (%) Ave. (Telomelysin (OBP-301) [1]; CDV 100 μM): 38.090%
- Protection (%) (Telomelysin (OBP-301) [1]; CDV 100 μM): 33.948% and 41.590% and 36.834% and 39.987%
- EC50 (Telomelysin (OBP-301) [1]; Telomelysin, A549 cells, XTT, read-out: EC50, CDV concentration that archive the protection to 50%): 35.9 µM
- Relative cell viability Ave. (H1299 cells; CDV 0.01 μM, Table 4A): 1.014
- Relative cell viability Ave. (H1299 cells; CDV 0.01 μM, Table 4B): 0.992
- Relative cell viability (H1299 cells; CDV 0.01 μM, Table 4A): 0.978 and 1.068 and 1.002 and 1.009
- Relative cell viability (H1299 cells; CDV 0.01 μM, Table 4B): 0.970 and 1.010 and 0.999 and 0.990
- Relative cell viability Ave. (H1299 cells; CDV 0.06 μM, Table 4A): 0.996
- Relative cell viability Ave. (H1299 cells; CDV 0.06 μM, Table 4B): 0.985
- Relative cell viability (H1299 cells; CDV 0.06 μM, Table 4A): 0.945 and 1.070 and 0.997 and 0.972
- Relative cell viability (H1299 cells; CDV 0.06 μM, Table 4B): 0.950 and 1.019 and 0.990 and 0.981
- Relative cell viability Ave. (H1299 cells; CDV 0.32 μM, Table 3A): 1.074
- Relative cell viability Ave. (H1299 cells; CDV 0.32 μM, Table 4A): 1.020
- Relative cell viability (H1299 cells; CDV 0.32 μM, Table 3A): 0.963 and 1.073 and 1.171 and 1.087
- Relative cell viability (H1299 cells; CDV 0.32 μM, Table 4A): 0.977 and 1.068 and 1.001 and 1.032
- Relative cell viability Ave. (H1299 cells; CDV 1.6 μM, Table 3A): 1.017
- Relative cell viability Ave. (H1299 cells; CDV 1.6 μM, Table 4A): 1.030
- Relative cell viability Ave. (H1299 cells; CDV 1.6 μM, Table 4B): 0.990
- Relative cell viability (H1299 cells; CDV 1.6 μM, Table 3A): 0.970 and 1.043 and 1.110 and 0.945
- Relative cell viability (H1299 cells; CDV 1.6 μM, Table 4A): 0.981 and 1.061 and 1.044 and 1.033
- Relative cell viability (H1299 cells; CDV 1.6 μM, Table 4B): 0.984 and 0.996 and 0.983 and 0.997
- Relative cell viability Ave. (H1299 cells; CDV 8 μM, Table 3A): 1.010
- Relative cell viability Ave. (H1299 cells; CDV 8 μM, Table 4A): 0.989
- Relative cell viability Ave. (H1299 cells; CDV 8 μM, Table 4B): 0.925
- Relative cell viability (H1299 cells; CDV 8 μM, Table 3A): 0.912 and 1.037 and 1.043 and 1.047
- Relative cell viability (H1299 cells; CDV 8 μM, Table 4A): 0.918 and 1.022 and 1.016 and 0.999
- Relative cell viability (H1299 cells; CDV 8 μM, Table 4B): 0.913 and 0.935 and 0.928 and 0.923
- Relative cell viability Ave. (H1299 cells; CDV 40 μM, Table 3A): 0.923
- Relative cell viability Ave. (H1299 cells; CDV 40 μM, Table 4A): 0.695
- Relative cell viability Ave. (H1299 cells; CDV 40 μM, Table 4B): 0.600
- Relative cell viability (H1299 cells; CDV 40 μM, Table 3A): 1.004 and 0.919 and 0.876 and 0.894
- Relative cell viability (H1299 cells; CDV 40 μM, Table 4A): 0.709 and 0.677 and 0.686 and 0.706
- Relative cell viability (H1299 cells; CDV 40 μM, Table 4B): 0.588 and 0.574 and 0.628 and 0.609
- Relative cell viability Ave. (H1299 cells; CDV 200 μM, Table 3A): 0.398
- Relative cell viability Ave. (H1299 cells; CDV 200 μM, Table 4A): 0.199
- Relative cell viability Ave. (H1299 cells; CDV 200 μM, Table 4B): 0.136
- Relative cell viability (H1299 cells; CDV 200 μM, Table 3A): 0.401 and 0.420 and 0.362 and 0.411
- Relative cell viability (H1299 cells; CDV 200 μM, Table 4A): 0.221 and 0.203 and 0.185 and 0.186
- Relative cell viability (H1299 cells; CDV 200 μM, Table 4B): 0.135 and 0.128 and 0.145 and 0.134
- Relative cell viability Ave. (H1299 cells; CDV 1000 μM, Table 4A): 0.037
- Relative cell viability Ave. (H1299 cells; CDV 1000 μM, Table 4B): 0.015
- Relative cell viability (H1299 cells; CDV 1000 μM, Table 4A): 0.033 and 0.043 and 0.036 and 0.037
- Relative cell viability (H1299 cells; CDV 1000 μM, Table 4B): 0.021 and 0.013 and 0.012 and 0.015
- toxicity of CDV itself (H1299 cells; H1299 cells, high concentrations): toxic
- CC50 at 7 days [2]: 146 µM
- Protection (%) Ave. (Telomelysin (OBP-301) [3]; CDV 0.32 μM): 7.983%
- Protection (%) (Telomelysin (OBP-301) [3]; CDV 0.32 μM): 10.293% and 11.665% and 3.980% and 5.993%
- Protection (%) Ave. (Telomelysin (OBP-301) [3]; CDV 1.6 μM): 0.274%
- Protection (%) (Telomelysin (OBP-301) [3]; CDV 1.6 μM): 3.339% and −5.901% and 1.144% and 2.516%
- Protection (%) Ave. (Telomelysin (OBP-301) [3]; CDV 8 μM): 3.065%
- Protection (%) Ave. (Telomelysin (OBP-301) [3]; CDV 40 μM): 83.829%
- Protection (%) (Telomelysin (OBP-301) [3]; CDV 40 μM): 88.243% and 72.049% and 84.950% and 90.073%
- Protection (%) Ave. (Telomelysin (OBP-301) [3]; CDV 200 μM): 29.369%
- Protection (%) (Telomelysin (OBP-301) [3]; CDV 200 μM): 29.414% and 30.878% and 28.957% and 28.225%
- Telomelysin-mediated cytopathic effect (Telomelysin (OBP-301) [3]; H1299 cells, FIG. 1A): apparently inhibited
- EC50 (Telomelysin (OBP-301) [3]; NCI-H1299, Telomelysin, H1299 cells, XTT, read-out: EC50, CDV concentration that archive the protection to 50%): 20.4 µM
- Protection (%) Ave. (TelomeScan (OBP-401); CDV 0.01 μM): −0.229%
- Protection (%) (TelomeScan (OBP-401); CDV 0.01 μM): −1.063% and 0.309% and −0.240% and 0.080%
- Protection (%) Ave. (TelomeScan (OBP-401); CDV 0.06 μM): 0.057%
- Protection (%) (TelomeScan (OBP-401); CDV 0.06 μM): −0.423% and −0.514% and 1.589%
- Protection (%) Ave. (TelomeScan (OBP-401); CDV 0.32 μM): 0.171%
- Protection (%) (TelomeScan (OBP-401); CDV 0.32 μM): 0.400% and 0.674% and −0.789%
- Protection (%) Ave. (TelomeScan (OBP-401); CDV 1.6 μM): 1.931%
- Protection (%) (TelomeScan (OBP-401); CDV 1.6 μM): 3.006% and −0.057% and 2.594% and 2.183%
- Protection (%) Ave. (TelomeScan (OBP-401); CDV 8 μM): 0.469%
- Protection (%) (TelomeScan (OBP-401); CDV 8 μM): 3.280% and 0.263% and −0.743% and −0.926%
- Protection (%) Ave. (TelomeScan (OBP-401); CDV 40 μM): 40.926%
- Protection (%) Ave. (TelomeScan (OBP-401); CDV 200 μM): 15.154%
- Protection (%) Ave. (TelomeScan (OBP-401); CDV 1000 μM): 1.463%
- Protection (%) (TelomeScan (OBP-401); CDV 1000 μM): 0.446% and 0.537% and 3.554% and 1.314%
- cytopathic effect induced by TelomeScan (TelomeScan (OBP-401); H1299 cells, FIG. 2A): apparently inhibited
